The record followed here is patent US12023330B2, “Use of manzamines as antiproliferative agent” (priority 2020, dated 2024).

The test system of series [1] is cervical cancer cell lines (SiHa and CaSki). In words: Cell growth of manzamine-related compounds. The format is cell-based, human. On the procedure:
(§1) Based on MoIN, the additional manzamine-related compounds such as manzamine D (2), manzamine F (3), 8-hydroxymanzamine A (4), and ircinal A (5) were tested for their biological activities targeting cervical cancer cell lines (SiHa and CaSki).
Cell Growth Kinetics. Cervical cancer cells (1×10^6) or HKc (2×10^5) were plated in 100 mm tissue culture petri dish or 6-well plates. Following overnight incubation, cells were treated with 2 μM or 4 μM concentrations of manzamine A (1) derivatives for different time points (24, 48 and 72 hours). Dimethyl sulphoxide (DMSO) was used as control. The cell proliferation activity was determined by cell counting under the microscope with a hemocytometer using trypan blue staining.

Series [2] has as its system normal human keratinocytes (HKc). In words: Cell growth kinetics of normal keratinocytes. The format is cell-based. The settings on record: 4 μM stated for compound 4; 48 h and 72 h; vs DMSO control. How it is done:
as §1
Generation of Normal Human Keratinocytes (HKc). The generation and processing of normal HKc from de-identified foreskin tissue samples has previously been described in our studies, see Pirisi, L.; Yasumoto, S.; Feller, M.; Doniger, J.; DiPaolo, J. A. J. Virol. 1987, 61, 1061-1066, and was implemented with the following modifications: dispase was used in lieu of collagenase, and a trypsinization step was added to release the epidermal cells. Briefly, to generate normal HKc primary cultures, the foreskin tissue, free of subcutaneous tissue, was placed in 10% dispase in phosphate buffer saline (PBS) and incubated overnight at 37° C. The next day, the epidermis was separated from the dermis, and processed mechanically by shredding the tissue into smaller pieces that were then treated with Trypsin/EDTA for 10 minutes at 37° C. Following the addition of fetal bovine serum (10%) to stop the trypsin action, cells were collected by centrifugation and plated in keratinocytes serum free medium (KSFM).
Cell Growth Kinetics. […] The cell proliferation activity was determined by cell counting under the microscope with a hemocytometer using trypan blue staining.

As for `O=C1CCCN2[C@@H](CC1)C[C@]13CN4CCCC/C=C\CC[C@](O)(C=C(c5nccc6c5[nH]c5c(O)cccc56)C1CC4)[C@H]23` (some centres unmarked) [manzamine F], the “effect on cervical cancer cell growth” value in series [1] is reported as “did not reveal any effect”.
With `O[C@]12C=C(C3NCCc4c3[nH]c3ccccc43)[C@@H]3CCN(CCCC/C=C\CC1)C[C@@]31C[C@@H]3/C=C\CCCCN3[C@H]12` (some centres unmarked) [manzamine D], the “effect on cervical cancer cell growth” value in series [1] is given as “did not reveal any effect”.
Take `O=CC1=C[C@@]2(O)CC/C=C\CCCCN3CC[C@@H]1[C@]1(CC4/C=C\CCCCN4[C@H]12)C3` (some centres unmarked) [ircinal A]: in series [1], the “effect on cervical cancer cell growth” value is given as “did not reveal any effect”.
Turning to `Oc1cccc2c1[nH]c1c(C3=C[C@@]4(O)CC/C=C\CCCCN5CC[C@@H]3[C@]3(C[C@@H]6/C=C\CCCCN6[C@H]34)C5)nccc12` [8-hydroxymanzamine A], the “effect on cervical cancer cell growth” value in series [1] is “showed inhibition”. Also, in series [2], the “cell growth kinetics of normal HKc” value was “inhibited significantly”.
